How the values were obtained:
[1] = biological target: T1, Pancreatic alpha-amylase (Sus scrofa) (UniProt P00690)
T1 sequence (whole entry): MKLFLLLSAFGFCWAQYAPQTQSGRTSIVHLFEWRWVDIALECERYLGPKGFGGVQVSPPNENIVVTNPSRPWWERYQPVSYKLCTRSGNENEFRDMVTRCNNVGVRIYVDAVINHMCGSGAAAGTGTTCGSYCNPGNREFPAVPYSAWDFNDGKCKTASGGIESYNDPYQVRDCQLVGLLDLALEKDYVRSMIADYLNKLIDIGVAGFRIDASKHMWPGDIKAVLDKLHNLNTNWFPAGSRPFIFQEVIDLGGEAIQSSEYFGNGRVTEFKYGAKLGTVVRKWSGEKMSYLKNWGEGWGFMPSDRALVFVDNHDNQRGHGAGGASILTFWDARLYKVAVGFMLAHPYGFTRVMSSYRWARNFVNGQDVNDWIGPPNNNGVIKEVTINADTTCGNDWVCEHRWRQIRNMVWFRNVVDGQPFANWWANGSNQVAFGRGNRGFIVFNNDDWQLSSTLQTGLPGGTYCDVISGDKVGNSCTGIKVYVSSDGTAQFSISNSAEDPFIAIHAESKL
Description: Non-competitive inhibition of porcine pancreatic alpha-amylase assessed as inhibitor-enzyme-substrate complex using starch as substrate by Lineweaver-Burk plot analysis

[2] = biological target: T1, Pancreatic alpha-amylase (Sus scrofa); remark: listed apart in the source
Description: Non-competitive inhibition of porcine pancreatic alpha-amylase assessed as inhibitor-enzyme complex using starch as substrate by Lineweaver-Burk plot analysis

Compound: C[C@H]1[C@H](C)CC[C@]2(C(=O)O)CC[C@]3(C)C(=CC[C@@H]4[C@@]5(C)C[C@@H](O)[C@H](O)C(C)(C)[C@@H]5CC[C@]43C)[C@H]12
- Kis [1]: 25.6 µM
- Kii [2]: 28.3 µM
